Laboratory results: patent US5532257A, “Benzothiazole compound, production thereof and use thereof” (Senju Pharmaceutical Co., Ltd, priority 1993, dated 1996)

How the values were obtained:
[1] = target: T1, aldose reductase (Sus scrofa, UniProt P80276); assay: Aldose reductase inhibitory action (swine lens enzyme, dl-glyceraldehyde substrate, NADPH, absorbance change at 340 nm); type: biochemical; conditions: 3 mM dl-glyceraldehyde, 0.1 mM NADPH, pH 6.2, 25° C., 2 minutes, read-out: IC50 (concentration inhibiting the aldose reductase activity by 50%)
T1 construct: swine lenses freeze-stored at -80° C. were homogenized with distilled water; from tissue; host or cells: swine lens
Method: That is, swine lenses freeze-stored at -80° C. were homogenized with distilled water and cetrifuged at 10,000 G for 15 minutes. The supernatant was prepared into a 40% ammonium sulfate solution and subjected to cetrifugation at 10,000 G for 10 minutes.
The activity of aldose reductase was determined by the above-mentioned method of S. Hayman et al. That is, the above-mentioned enzyme solution (25 μl) and a drug solution (25 μl) dissolved in 1% DMSO at various concentrations were added to a 40 mM phosphate buffer (200 μl, pH 6.2) containing final concentrations of 0.4 M lithium sulfate, 0.1 mM NADPH (reduced type nicotinamide adenine dinucleotide phosphate) and 3 mM dl-glyceraldehyde as a substrate.
The test drug number indicates the example number to be mentioned later.

[2] = system: Sorbitol accumulation in sciatic nerve; assay: Inhibitory action on sorbitol accumulation in tissues of rats with experimental (streptozotocin) diabetes: sciatic nerve; type: in vivo, Sprague-Dawley rats; conditions: % of control (control = 100%), measured 3 hours after final administration
Method: (§1) 2) Inhibitory action on sorbitol accumulation in tissues of rats with experimental diabetes
(§2) Test Drugs: Compound of the invention and EPALRESTAT (described in Japanese Patent Unexamined Publication No. 40478/1982)
(§3) Sprague-Dawley rats (male, 6 weeks old, 5-6 per group) were fasted for 18 hours and injected with streptozotocin (SIGMA, 60 mg/kg) via the tail vein under etherization to prepare rats with diabetes.
(§4) The various compounds were orally administered at 4, 8 and 24 hours after the injection of streptozotocin, at 10 mg/kg or 30 mg/kg as a 0.5% carboxymethylcellulose suspension. During the administrations, the rats were raised under free access to feed and water and the sorbitol content in the tissues (erythrocytes, sciatic nerve, lens) was determined 3 hours after the final administration, according to the enzyme method of H. Y. Bergmeyer et al. [Methods of Enzymatic Analysis, vol. 3, 1323-1330 (1974)]with the use of SDH (sorbitol dehydrogenase) and NAD (β-nicotinamide adenine dinucleotide). The results are expressed in percent (%) relative to the value of a control group administered with 0.5% carboxymethylcellulose solution (solvent) instead of the compound, which was taken as 100%.

[3] = system: Sorbitol accumulation in lens; assay: Inhibitory action on sorbitol accumulation in tissues of rats with experimental (streptozotocin) diabetes: lens; type: in vivo, Sprague-Dawley rats; conditions: % of control (control = 100%), measured 3 hours after final administration
Method: as §1, §2, §3, §4

[4] = system: Sorbitol accumulation in erythrocytes; assay: Inhibitory action on sorbitol accumulation in tissues of rats with experimental (streptozotocin) diabetes: erythrocytes; type: in vivo, Sprague-Dawley rats; conditions: % of control (control = 100%), measured 3 hours after final administration
Method: as §1, §2, §3, §4

[5] = system: ICR mice; conditions: mouse, in vivo
Method: The acute toxicity (safety) of the compound of the present invention was confirmed by the following method.
Normal ICR mice (male, 7 weeks old, 5 per group) were fasted for 18 hours and the compound (300 mg/kg) of Example 37 was orally administered as a 0.5% carboxymethylcellulose suspension. To the control group, a 0.5% carboxymethylcellulos e solution alone was orally administered and observation was continued for 14 days thereafter, during which period the mice were allowed to take feed and water freely.

[6] = 30 mg/kg oral at 4, 8 and 24 hours after streptozotocin
[7] = 10 mg/kg oral at 4, 8 and 24 hours after streptozotocin, ** p<0.01 (Tukey)
[8] = 10 mg/kg oral at 4, 8 and 24 hours after streptozotocin, * p<0.05, ** p<0.01 (Tukey)

Row | SMILES | IC50 [1] | Sorbitol accumulation, sciatic nerve [2, 6] | Sorbitol accumulation, lens [3, 6] | Sorbitol accumulation, erythrocytes [4, 6] | Sorbitol accumulation, sciatic nerve [2, 7] | Sorbitol accumulation, lens [3, 8] | Sorbitol accumulation, erythrocytes [4, 7] | death among the mice [5]
1 | Cc1ccc(N(Cc2nc3c(F)c(F)cc(F)c3s2)C(=O)CCC(=O)O)cc1 [Example 41, N-[(4,5,7-trifluorobenzothiazol-2-yl)methyl]-N-(4-methylphenyl)succinamic acid] | 13 nM |  |  |  |  |  |  | 
2 | CC(/C=C1\SC(=S)N(CC(=O)O)C1=O)=C\c1ccccc1 [EPALRESTAT, reference compound] |  | 99.9% | 89.1% | 66.5% |  |  |  | 
3 | O=C(O)CCC(=O)N(Cc1nc2c(F)c(F)cc(F)c2s1)c1ccccc1 [Example 65, N-[(4,5,7-trifluorobenzothiazol-2-yl)methyl]-N-phenylsuccinamic acid] | 15 nM |  |  |  | 4.0% | 71.8% | 6.4% | 
4 | COc1ccc(N(Cc2nc3c(F)c(F)cc(F)c3s2)C(=O)CCC(=O)O)cc1 [Example 55, N-[(4,5,7-trifluorobenzothiazol-2-yl)methyl]-N-(4-methoxyphenyl)succinamic acid] |  |  |  |  | 27.2% | 74.4% | 2.5% | 
5 | O=C(O)CCC(=O)N(Cc1nc2c(F)c(F)cc(F)c2s1)c1ccc(Cl)cc1 [Example 37, N-(4-chlorophenyl)-N-[(4,5,7-trifluorobenzothiazol-2-yl)methyl]succinamic acid] |  |  |  |  | 17.8% | 55.4% | 16.4% | no case of death
6 | O=C(O)CCC(=O)N(Cc1nc2c(Cl)c(Cl)ccc2s1)c1ccc(Cl)cc1 [Example 39, N-(4-chlorophenyl)-N-[(4,5-dichlorobenzothiazol-2-yl)methyl]succinamic acid] | 13 nM |  |  |  |  |  |  | 
7 | O=C(O)CCC(=O)N(Cc1nc2c(F)c(F)cc(F)c2s1)c1ccccc1Cl [Example 48, N-(2-chlorophenyl)-N-[(4,5,7-trifluorobenzothiazol-2-yl)methyl]succinamic acid] |  |  |  |  | 45.7% | 56.6% | 32.8% | 
8 | CSc1ccccc1N(Cc1nc2c(F)c(F)cc(F)c2s1)C(=O)CCC(=O)O [Example 72, N-[(4,5,7-trifluorobenzothiazol-2-yl)methyl]-N-(2-methylthiophenyl)succinamic acid] | 13 nM |  |  |  | 10.8% | 50.0% | 19.2% | 
